Measured values: patent US9937235B2, “Lipidated peptides as anti-obesity agents” (USTAV ORGANICKE CHEMIE A BIOCHEMIE AKADEMIE VED CR, V.V.I, priority 2012, dated 2018)
Where a SMILES comes first, the peptide text is derived from it. Where no end group is shown, it is not given here. [ ]: non-standard residue; d: D form. The star is where a group is joined. Palmitoyl = CCCCCCCCCCCCCCCC(=O)*; Myristoyl = CCCCCCCCCCCCCC(=O)*; Octanoyl = CCCCCCCC(=O)*

T1: rat PrRP receptor in RC-4B/C cells (rat, UniProt Q64121 1-370)
T1 construct: whole, on cells; also called the rat receptor; GPR10
T1 sequence (looked up): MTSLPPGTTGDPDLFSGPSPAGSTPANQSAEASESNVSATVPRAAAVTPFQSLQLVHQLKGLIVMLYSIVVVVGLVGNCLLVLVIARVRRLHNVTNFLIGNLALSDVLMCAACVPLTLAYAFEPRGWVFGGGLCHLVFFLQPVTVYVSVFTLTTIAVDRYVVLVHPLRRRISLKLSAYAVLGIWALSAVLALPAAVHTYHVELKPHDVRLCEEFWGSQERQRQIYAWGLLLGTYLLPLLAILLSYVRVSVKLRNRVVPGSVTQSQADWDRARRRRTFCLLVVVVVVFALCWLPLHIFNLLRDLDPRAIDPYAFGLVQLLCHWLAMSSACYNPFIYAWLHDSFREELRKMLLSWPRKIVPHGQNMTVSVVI

B1: analog no. 56 (peptide)
peptide: Myristoyl-SRTHRHSMEIRTPDINPAWYASRGIRPVGRF-NH2
SMILES: CCCCCCCCCCCCCC(=O)N[C@@H](CO)C(=O)N[C@@H](CCCNC(=N)N)C(=O)N[C@H](C(=O)N[C@@H](Cc1c[nH]cn1)C(=O)N[C@@H](CCCNC(=N)N)C(=O)N[C@@H](Cc1c[nH]cn1)C(=O)N[C@@H](CO)C(=O)N[C@@H](CCSC)C(=O)N[C@@H](CCC(=O)O)C(=O)N[C@H](C(=O)N[C@@H](CCCNC(=N)N)C(=O)N[C@H](C(=O)N1CCC[C@H]1C(=O)N[C@@H](CC(=O)O)C(=O)N[C@H](C(=O)N[C@@H](CC(N)=O)C(=O)N1CCC[C@H]1C(=O)N[C@@H](C)C(=O)N[C@@H](Cc1c[nH]c2ccccc12)C(=O)N[C@@H](Cc1ccc(O)cc1)C(=O)N[C@@H](C)C(=O)N[C@@H](CO)C(=O)N[C@@H](CCCNC(=N)N)C(=O)NCC(=O)N[C@H](C(=O)N[C@@H](CCCNC(=N)N)C(=O)N1CCC[C@H]1C(=O)N[C@H](C(=O)NCC(=O)N[C@@H](CCCNC(=N)N)C(=O)N[C@@H](Cc1ccccc1)C(N)=O)C(C)C)[C@@H](C)CC)[C@@H](C)CC)[C@@H](C)O)[C@@H](C)CC)[C@@H](C)O

The molecules below were run against T1, rat PrRP receptor in RC-4B/C cells (assay: competition with 125I-rat PrRP31 on RC-4B/C cells). Conditions: not given.
Protocol: The rat pituitary cell line RC-4B/C (ATCC, Manassas, USA) was grown on 24-well plates which had their bottom coated with polyethyleneimine. The cells were grown to the optimal density of 300-450 thousand per well.
Plates were incubated for 60 minutes at room temperature. After incubation, the cells were solubilized in 0.1 mol/l solution of NaOH and the radioactivity bound to the cells was counted using a γ-counter. The experiments were performed in duplicate and repeated at least three times.
For evaluation of competitive binding experiments, the program Graph Pad Prism Software (San Diego, Calif., USA) was used. A method of nonlinear regression assuming one-site binding was used.

Molecule	Ki [nM]
B1	0.95
TPDINPAWYASRGIRPVGRF-NH2 [analog no. 51]	2.38
Palmitoyl-SRTHRHSMEIRTPDINPAWYASRGIRPVGRF-NH2 [analog no. 57]	0.28

What follows are molecules tested on fasted C57BL/6 mice (assay: Food intake in fasted mice after SC administration). Conditions: fasted C57BL/6 mice, 5 mg/kg SC, 45 min.
Assay type: in vivo, mouse
Protocol: Male C57BL/6 mice (An Lab, Prague 4) were bred in the accredited animal facility in the Institute of Organic Chemistry and Biochemistry, Czech Academy of Sciences, Prague, at the Institute of Molecular Genetics, Prague 4, at the temperature of 22±2° C. with access to food and water ad libitum. The day/night cycle was 12/12 hours (light turned on at 6:00 am). Animals were treated according to the Animal Protection Act (Act No. 246/1992). The males were fed standard chow diet St-1 (Mlýn Kocanda, Praha, Czech Republic) which contained 66% saccharides, 25% proteins and 9% lipids with a caloric value of 3.4 kcal/g.
The food was withdrawn 17 hours prior to injection of lipidated peptide and free access to water was maintained. The administration of saline, PrRP or lipidated analogs was performed either by SC injection at doses of 1-10 mg/kg (volume 0.2 ml/mouse), or by ICV using infusion pump (cannulae were inserted into the third brain ventricle 4 days before the experiment following the procedure of Maixnerová et al. (Maixnerová et al., 2011)). The single dose of peptide was 4 nmol/mouse (5 μl/mouse).
Fifteen minutes after the lipidated peptide administration, the mice were given pre-weighed food. The food was then weighed every 30 minutes for 5-10 hours. The administration of every dose was performed at least twice and one group of mice consisted of at least 6 mice. The results were presented as % of food intake as compared with the control group injected with saline.
Statistical evaluation was performed using program Graph-Pad Prism Software (San Diego, Calif., USA), and the one-way ANOVA with a subsequent Dunnettovým post-hoc test. The difference in food intake between mice injected with saline and mice injected with the examined peptide were considered statistically significant at P<0.05.

Molecule	Food intake in mice (5 mg/kg SC) % saline-treated group (45 min) [%]
CCCCCCCCCCCCCC(=O)N[C@H](Cc1ccccc1)C(=O)N[C@H](CCCNC(=N)N)C(=O)NCC(=O)N[C@H](C(=O)N1CCC[C@H]1C(=O)N[C@@H](CCCNC(=N)N)C(=O)N[C@H](C(=O)NCC(=O)N[C@@H](CCCNC(=N)N)C(=O)NCC(=O)N[C@H](C(=O)N[C@@H](Cc1ccc(O)cc1)C(=O)N[C@@H](Cc1c[nH]c2ccccc12)C(=O)N[C@@H](C)C(=O)N1CCC[C@H]1C(=O)N[C@@H](CC(N)=O)C(=O)N[C@H](C(=O)N[C@@H](CC(=O)O)C(=O)N1CCC[C@H]1C(=O)N[C@H](C(N)=O)[C@@H](C)O)[C@@H](C)CC)[C@@H](C)O)[C@@H](C)CC)C(C)C [Analog 37] (Myristoyl-[dF][dR]GVPRIGRGTYWAPNIDPT-NH2)	100
CC[C@H](C)[C@H](NC(=O)CNC(=O)[C@H](CCCNC(=N)N)NC(=O)[C@H](CO)NC(=O)[C@H](C)NC(=O)[C@H](Cc1ccc(O)cc1)NC(=O)[C@H](Cc1c[nH]c2ccccc12)NC(=O)[C@H](C)NC(=O)[C@@H]1CCCN1C(=O)[C@H](CC(N)=O)NC(=O)[C@@H](NC(=O)[C@H](CC(=O)O)NC(=O)[C@@H]1CCCN1C(=O)[C@@H](NC(=O)[C@H](CCCNC(=N)N)NC(=O)[C@@H](NC(=O)[C@H](CCC(=O)O)NC(=O)[C@H](CCSC)NC(=O)[C@H](CO)NC(=O)[C@H](Cc1c[nH]cn1)NC(=O)[C@H](CCCNC(=N)N)NC(=O)[C@H](Cc1c[nH]cn1)NC(=O)[C@@H](NC(=O)[C@H](CCCNC(=N)N)NC(=O)[C@@H](N)CO)[C@@H](C)O)[C@@H](C)CC)[C@@H](C)O)[C@@H](C)CC)C(=O)N[C@@H](CCCNC(=N)N)C(=O)N1CCC[C@H]1C(=O)N[C@H](C(=O)NCC(=O)N[C@@H](CCCNC(=N)N)C(=O)N[C@@H](Cc1ccccc1)C(N)=O)C(C)C [Analog 50]	100
CCCCCCCC(=O)N[C@H](C(=O)N1CCC[C@H]1C(=O)N[C@@H](CC(=O)O)C(=O)N[C@H](C(=O)N[C@@H](CC(N)=O)C(=O)N1CCC[C@H]1C(=O)N[C@@H](C)C(=O)N[C@@H](Cc1c[nH]c2ccccc12)C(=O)N[C@@H](Cc1ccc(O)cc1)C(=O)N[C@@H](C)C(=O)N[C@@H](CO)C(=O)N[C@@H](CCCNC(=N)N)C(=O)NCC(=O)N[C@H](C(=O)N[C@@H](CCCNC(=N)N)C(=O)N1CCC[C@H]1C(=O)N[C@H](C(=O)NCC(=O)N[C@@H](CCCNC(=N)N)C(=O)N[C@@H](Cc1ccccc1)C(N)=O)C(C)C)[C@@H](C)CC)[C@@H](C)CC)[C@@H](C)O [Analog 52] (Octanoyl-TPDINPAWYASRGIRPVGRF-NH2)	100
CCCCCCCCCCCCCC(=O)N[C@@H](CO)C(=O)N[C@@H](CCCNC(=N)N)C(=O)N[C@H](C(=O)N[C@@H](Cc1c[nH]cn1)C(=O)N[C@@H](CCCNC(=N)N)C(=O)N[C@@H](Cc1c[nH]cn1)C(=O)N[C@@H](CO)C(=O)N[C@@H](CCSC)C(=O)N[C@@H](CCC(=O)O)C(=O)N[C@H](C(=O)N[C@@H](CCCNC(=N)N)C(=O)N[C@H](C(=O)N1CCC[C@H]1C(=O)N[C@@H](CC(=O)O)C(=O)N[C@H](C(=O)N[C@@H](CC(N)=O)C(=O)N1CCC[C@H]1C(=O)N[C@@H](C)C(=O)N[C@@H](Cc1c[nH]c2ccccc12)C(=O)N[C@@H](Cc1ccc(O)cc1)C(=O)N[C@@H](C)C(=O)N[C@@H](CO)C(=O)N[C@@H](CCCNC(=N)N)C(=O)NCC(=O)N[C@H](C(=O)N[C@@H](CCCNC(=N)N)C(=O)N1CCC[C@H]1C(=O)N[C@H](C(=O)NCC(=O)N[C@@H](CCCNC(=N)N)C(=O)N[C@@H](Cc1ccccc1)C(N)=O)C(C)C)[C@@H](C)CC)[C@@H](C)CC)[C@@H](C)O)[C@@H](C)CC)[C@@H](C)O [Analog 56]	35
CCCCCCCCCCCCCCCC(=O)N[C@@H](CO)C(=O)N[C@@H](CCCNC(=N)N)C(=O)N[C@H](C(=O)N[C@@H](Cc1c[nH]cn1)C(=O)N[C@@H](CCCNC(=N)N)C(=O)N[C@@H](Cc1c[nH]cn1)C(=O)N[C@@H](CO)C(=O)N[C@@H](CCSC)C(=O)N[C@@H](CCC(=O)O)C(=O)N[C@H](C(=O)N[C@@H](CCCNC(=N)N)C(=O)N[C@H](C(=O)N1CCC[C@H]1C(=O)N[C@@H](CC(=O)O)C(=O)N[C@H](C(=O)N[C@@H](CC(N)=O)C(=O)N1CCC[C@H]1C(=O)N[C@@H](C)C(=O)N[C@@H](Cc1c[nH]c2ccccc12)C(=O)N[C@@H](Cc1ccc(O)cc1)C(=O)N[C@@H](C)C(=O)N[C@@H](CO)C(=O)N[C@@H](CCCNC(=N)N)C(=O)NCC(=O)N[C@H](C(=O)N[C@@H](CCCNC(=N)N)C(=O)N1CCC[C@H]1C(=O)N[C@H](C(=O)NCC(=O)N[C@@H](CCCNC(=N)N)C(=O)N[C@@H](Cc1ccccc1)C(N)=O)C(C)C)[C@@H](C)CC)[C@@H](C)CC)[C@@H](C)O)[C@@H](C)CC)[C@@H](C)O [Analog 57]	11
CCCCCCCCCCCCCC(=O)N[C@@H](CO)C(=O)N[C@@H](CCCNC(=N)N)C(=O)N[C@@H](C)C(=O)N[C@@H](Cc1c[nH]cn1)C(=O)N[C@@H](CCC(N)=O)C(=O)N[C@@H](Cc1c[nH]cn1)C(=O)N[C@@H](CO)C(=O)N[C@@H](CCSC)C(=O)N[C@@H](CCC(=O)O)C(=O)N[C@H](C(=O)N[C@@H](CCCNC(=N)N)C(=O)N[C@H](C(=O)N1CCC[C@H]1C(=O)N[C@@H](CC(=O)O)C(=O)N[C@H](C(=O)N[C@@H](CC(N)=O)C(=O)N1CCC[C@H]1C(=O)N[C@@H](C)C(=O)N[C@@H](Cc1c[nH]c2ccccc12)C(=O)N[C@@H](Cc1ccc(O)cc1)C(=O)N[C@H](C(=O)NCC(=O)N[C@@H](CCCNC(=N)N)C(=O)NCC(=O)N[C@H](C(=O)N[C@@H](CCCNC(=N)N)C(=O)N1CCC[C@H]1C(=O)N[C@H](C(=O)NCC(=O)N[C@@H](CCCNC(=N)N)C(=O)N[C@@H](Cc1ccccc1)C(N)=O)C(C)C)[C@@H](C)CC)[C@@H](C)O)[C@@H](C)CC)[C@@H](C)O)[C@@H](C)O [Analog 60] (Myristoyl-SRAHQHSMETRTPDINPAWYTGRGIRPVGRF-NH2)	20
TPDINPAWYASRGIRPVGRF-NH2 [Analog 51]	100
